How the values were obtained:
[1] = tested on: maize immature embryos; assay: Maize transformation, glyphosate/EPSPS selection with differing sucrose levels in selection media; assay type: cell-based, Zea mays (corn); conditions: glyphosate selection
Description: (§1) Transformation of immature maize embryos is performed essentially as described in Negrotto et al., (2000) Plant Cell Reports 19: 798-803. Various media constituents described therein can be substituted. For example, the selectable marker gene and the selection agent can be modified, as in the examples below.
(§2) The genes used for transformation are cloned into a vector suitable for maize transformation as described above. Vectors used contain the either the PAT gene or the EPSPS gene as a selectable marker. PAT confers resistance to bialaphose, and EPSPS confers resistance to glyphosate.
(§3) Preparation of Agrobacterium tumefaciens: Agrobacterium strain LBA4404 (pSB1) containing the plant transformation plasmid is grown on YPC (yeast extract (5 g/L), peptone (10 g/L), NaCl (5 g/L), CaCl2.2H2O (1 g/L), 15 g/l agar, pH 6.8) solid medium for 2 to 4 days at 28° C. Approximately 0.8×10^9 Agrobacteria are suspended in inoculation medium supplemented with 100 μM acetosyringone (As) Bacteria are pre-induced in this medium for about 20 to 240 minutes.
(§4) Inoculation: Immature embryos from are excised from 8-12 day old ears after pollination. The isolated mixture of endosperms with immature embryos are suspended in the inoculation medium and poured through a 1500 um sieve after shaking. The immature embryos are captured on a 380 um sieve after pouring the suspension through. Immature embryos are gently removed from the sieve and suspended in Agrobacterium suspension on co-cultivation medium using a sterile scalpel blade after 5 min 45° C. heat shock. The immature embryo suspension is spread evenly on the co-cultivation medium and the excess Agrobacterium suspension is removed using a sterile transfer pipette and filter papers. The immature embryos are then spaced and flipped with round scutellum side up and then cultured in the dark for two to three days. Subsequently, between 20 and 45 embryos per petri plate are transferred to the medium AW5Dicamba100Ti and cultured in the dark for 28° C. for 10-14 days for callus induction.
Following co-cultivation and callus induction, the transformed calli are step-wisely selected on MS medium or MS medium contained differing concentrations of sucrose (5, 10 and 20, g/l) and glyphosate (2 mg/l) as indicated in Table 2.
In one embodiment of the present invention, in an incubation selection period referred to in Table 2 as S1, 10-20 calli from callus induction medium were transferred onto selection medium S1 and cultured for approximately 2 weeks at 28° C. in the dark. Each callus is originated from an immature embryo.
For the selection period referred to as S2, about 9 to 10 calli cultured in selection step S1 were transferred to each plate containing selection medium S2 and then cultured for approximately 2 weeks at 28° C. in dark.
For the selection period referred to as S3, about 9 to 10 calli cultured in selection period S2 were transferred to selection medium of selection period S3 containing 20 g/l sucrose and 2 mM glyphosate. and cultured for approximately 2 weeks at 28° C. in the dark.
In another embodiment and referring to Table 2, about 10 to 20 calli per plate from callus induction medium were transferred onto selection medium of selection period S1. and cultured for approximately 2-3 weeks at 28° C. in the dark. Each callus was originated from an immature embryo. About 9 to 10 calli per plates were transferred to selection medium of selection period S2. and cultured for approximately 2 weeks at 28° C. in the dark.
Regeneration of Transformed Plants: Glyphosate-resistant embryogenic callus were selected under dissecting microscope and 4 embryogenic calli per plate were transferred to regeneration medium. and cultured for approximately 2 weeks at 28° C. in the dark. The cultures were subsequently transferred to a light room for 14 days at 25° C. with a 16 hour photoperiod. […]

[2] = tested on: sugarcane callus; assay: Sugarcane transformation, glyphosate/EPSPS selection with differing sucrose levels in selection media; assay type: cell-based, sugarcane (Saccharum)
Description: The method of the present invention includes embryogenic responses initiated and/or cultures established from sugar cane young leave rolls by culturing on callus induction medium. Established embryogenic cultures were weighted, and then inoculated and co-cultivated with the Agrobacterium tumefaciens strain EHA101 (Agrobacterium) containing the desired vector construction. Agrobacterium was cultured from glycerol stocks on solid YPC medium (100 mg/L spectinomycin and any other appropriate antibiotic) for about two days at 28° C. Agrobacterium is re-suspended in liquid MS-D2 medium. The Agrobacterium culture was diluted to an OD600 of 0.3-0.4 and acetosyringone is added to a final concentration of 400 uM. Acetosyringone was added before mixing the solution with the sugar cane cultures to induce Agrobacterium for DNA transfer to the plant cells. For inoculation, the cultures were immersed in the bacterial suspension. The liquid bacterial suspension is removed and the inoculated cultures were placed on empty plate for co-cultivation and incubated at 22° C. for two days. The cultures were then transferred to callus induction medium with Ticarcillin (400 mg/liter) to inhibit the growth of Agrobacterium and cultured for 4-10 days at 28° C. in dark. Referring to Table 3 below, for constructs utilizing the EPSPS selectable marker gene, cultures are transferred to selection S1 medium containing glyphosate as the selection agent and 400 mg/liter Ticarcillin and cultured for 3-4 weeks in the dark. For different treatments, the concentration of sucrose varied from 0 to 30 g/l and glyphosate level varied from 0.1 to 5 mM. […] Resistant colonies were then transferred to regeneration medium, and grown in the dark for 7 days, and then moved to the light growth room for 14 days. Regenerated shoots were transferred Rooting media for 3-4 weeks and then moved to the greenhouse when they are large enough and have adequate roots. Plants are transplanted to soil in the greenhouse (To generation), and grown to maturity.

[3] = tested on: maize immature embryos; assay: Maize transformation, bialaphos/PAT selection with differing sucrose levels in selection media; assay type: cell-based, Zea mays (corn)
Description: as §1, §2, §3, §4
Following co-cultivation and callus induction, the transformed calli are step-wise selected on MS medium or MS medium containing alternating concentrations of sucrose (5, 10 and 20, g/l) and bialaphos (5 and 7.5 mg/l) as indicated in Table 1. The controls comprise calli selected on MS medium supplemented with 20 g/l sucrose and 5 or 7.5 mg/l bialaphos for 4 to 6 weeks at 2 to 3 week intervals.
In a first selection period referred to in Table 1 as 51, about 10-20 calli are transferred from callus induction medium comprising 30 g/L sucrose onto 51 medium MS medium contained 5 g/l sucrose and 7.5 mg/l bialaphos and cultured for approximately 2 weeks at 28° C. in the dark. Each callus was originated from an immature embryo. For the second selection period, referred to in Table 1 as S2, about 9 to 10 calli of 51 are transferred to each plate containing S2 medium comprising 10 g/l sucrose and 7.5 mg/l bialaphose and then cultured for approximately 2 weeks at 28° C. in dark. For the third selection period referred to as S3, 9 to 10 calli are transferred from each S2 plate to S3 medium contained 20 g/l sucrose and 5 mg/l bialaphos and cultured for approximately 2 weeks at 28° C. in dark.
In another embodiment of the invention, in the first selection period S1 about 10 to 20 calli from each plate were transferred from callus induction medium comprising 30 g/L sucrose onto S1 medium containing 10 g/L of sucrose and 7.5 mg/l bialaphos and cultured for approximately 3 weeks at 28° C. in the dark. Each callus was originated from an immature embryo. 9 to 10 calli per plate were transferred from the S1 medium to S3 medium containing 20 g/L of sucrose and cultured for 2 weeks at 28° C. in dark. […]

[4] = control, 20 g/L sucrose, bialaphos selection

Structure (SMILES): OC[C@H]1O[C@@](CO)(O[C@H]2O[C@H](CO)[C@@H](O)[C@H](O)[C@H]2O)[C@@H](O)[C@@H]1O [sucrose]
- regeneration frequency ([1]; sucrose 5 g/L in S2 followed by 20 g/L in S3): 87.4%
- frequency of independent stable transgenic events (transformation frequency) ([1]; sucrose 5 g/L in second round (S2) followed by 20 g/L in third round (S3)): 29.5%
- regeneration frequency ([1]; sucrose 10 g/L in S2 followed by 20 g/L in S3): 86.4%
- frequency of independent stable transgenic events ([1]; sucrose 10 g/L in second round (S2) followed by 20 g/L in third round (S3)): 18.3%
- frequency of independent stable transgenic events ([1]; negative control, standard sucrose concentration 20 g/L): 4.8%
- regeneration frequency ([1]; negative control, sucrose 20 g/L): 7.9%
- transformation frequency ([2]; altering sucrose level and adjusting glyphosate concentration in step-wise selection): > 7 % per gram fresh tissue
- recovery of transgenic plants ([2]; standard control, MS medium with 30 g/l sucrose and 3 mM glyphosate): no transgenic plants were recovered
- transformation frequency ([2]; sucrose concentration reduced to 5 g/l in selection medium): 2.4 % per gram of fresh tissues
- transformation frequency ([2]; sucrose concentration reduced to 10 and 15 g/l): improved
- regeneration frequency ([3]; 5 and 10 g/L sucrose in S1 bialaphos selection): more than 65%
- transformation frequency increase compared to the control ([3]; 5 g/L sucrose in S1 bialaphos selection vs 20 g/L control): 3.1 fold
- transformation frequency ([3]; 5 g/L sucrose in bialaphos selection media, first round of selection (S1)): 23.5%
- escape rate ([3]; 5 g/L sucrose, bialaphos selection): 2.4%
- transformation frequency increase compared to the control ([3]; 10 g/L sucrose in S1 bialaphos selection vs 20 g/L control): 2.2 fold
- transformation frequency ([3]; 10 g/L sucrose in bialaphos selection media, first round of selection (S1)): 16.9%
- escape rate [3, 4]: 11.8%
- regeneration frequency [3, 4]: 37.4%
- transformation frequency [3, 4]: 7.6%
